Data reported in ChEMBL document CHEMBL1201862, “PubChem BioAssay data set” (2004).
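Method: 48-hour compound exposure of cells in 96-well plates, five concentrations, linear interpolation of endpoints. GI50 is the concentration that inhibits growth by half.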 The source made the active and inactive calls. Cut-off read from the data, not from the text of the source: active = GI50 up to about 1.1 µM and inactive = higher.

Columns and labels:
Test in all cases: inhibition of tumour cell growth, NCI panel, 48 h
K562 = tested on: K562
NCI-H226 = tested on: NCI-H226
SN12C = tested on: SN12C
NCI/ADR-RES = tested on: NCI/ADR-RES
IGROV-1 = tested on: IGROV-1
A549 = tested on: A549
MOLT-4 = tested on: MOLT-4
HL-60 = tested on: HL-60
KM12 = tested on: KM12
HCC 2998 = tested on: HCC 2998
SK-MEL-5 = tested on: SK-MEL-5
TK-10 = tested on: TK-10
RPMI-8226 = tested on: RPMI-8226
786-0 = tested on: 786-0
OVCAR-3 = tested on: OVCAR-3
DU-145 = tested on: DU-145
MCF7 = tested on: MCF7
NCI-H23 = tested on: NCI-H23
SNB-75 = tested on: SNB-75
UO-31 = tested on: UO-31

| SMILES | GI50 (K562) | GI50 (NCI-H226) | GI50 (SN12C) | GI50 (NCI/ADR-RES) | GI50 (IGROV-1) | GI50 (A549) | GI50 (MOLT-4) | GI50 (HL-60) | GI50 (KM12) | GI50 (HCC 2998) | GI50 (SK-MEL-5) | GI50 (TK-10) | GI50 (RPMI-8226) | GI50 (786-0) | GI50 (OVCAR-3) | GI50 (DU-145) | GI50 (MCF7) | GI50 (NCI-H23) | GI50 (SNB-75) | GI50 (UO-31) |
| --- | --- | --- | --- | --- | --- | --- | --- | --- | --- | --- | --- | --- | --- | --- | --- | --- | --- | --- | --- | --- |
| CCNC1=C(NC(=O)c2ccccc2)C(=O)c2ccccc2C1=O | 45.4 µM (inactive) | 27.9 µM (inactive) | 42.8 µM (inactive) | 16.7 µM (inactive) | 46.9 µM (inactive) | 67.6 µM (inactive) | 63.4 µM (inactive) | 36.3 µM (inactive) | 30.4 µM (inactive) | 33 µM (inactive) | > 10 µM (inactive) | 98.4 µM (inactive) | > 100 µM (inactive) | > 100 µM (inactive) | 25.1 µM (inactive) | 57 µM (inactive) | 32.1 µM (inactive) | 36.7 µM (inactive) | – | – |
| Cc1ccc(N)c(S)c1 | 28.6 µM (inactive) | 22 µM (inactive) | 1.7 µM (inactive) | 24 µM (inactive) | 17.7 µM (inactive) | 21.5 µM (inactive) | 22 µM (inactive) | 25.2 µM (inactive) | 18.3 µM (inactive) | 32.1 µM (inactive) | 16.5 µM (inactive) | 21.8 µM (inactive) | – | 16.1 µM (inactive) | 21.3 µM (inactive) | 15.7 µM (inactive) | 18.5 µM (inactive) | 17.7 µM (inactive) | 21.7 µM (inactive) | 13.8 µM (inactive) |
| O=C1CC2(CCNCC2)C(=O)N1N1CCCC1 | > 100 µM (inactive) | > 100 µM (inactive) | > 100 µM (inactive) | > 100 µM (inactive) | > 100 µM (inactive) | > 100 µM (inactive) | > 100 µM (inactive) | > 100 µM (inactive) | > 100 µM (inactive) | > 100 µM (inactive) | > 100 µM (inactive) | > 100 µM (inactive) | > 100 µM (inactive) | > 100 µM (inactive) | > 100 µM (inactive) | > 100 µM (inactive) | > 100 µM (inactive) | > 100 µM (inactive) | – | > 100 µM (inactive) |
| NC(=O)NCCCC(NC(=O)OCCCCCn1ccc(=O)[nH]c1=O)C(=O)O (stereo not given) | > 100 µM (inactive) | 63.2 µM (inactive) | > 100 µM (inactive) | > 100 µM (inactive) | 23.1 µM (inactive) | > 100 µM (inactive) | > 100 µM (inactive) | > 100 µM (inactive) | > 100 µM (inactive) | > 100 µM (inactive) | – | > 100 µM (inactive) | > 100 µM (inactive) | > 100 µM (inactive) | > 100 µM (inactive) | > 100 µM (inactive) | > 100 µM (inactive) | > 100 µM (inactive) | > 100 µM (inactive) | > 100 µM (inactive) |
| [N-]=[N+]=C(C(=O)C(=[N+]=[N-])C(=O)c1ccccc1)C(=O)c1ccccc1 | > 100 µM (inactive) | – | > 100 µM (inactive) | > 100 µM (inactive) | > 100 µM (inactive) | > 100 µM (inactive) | – | > 100 µM (inactive) | 44.2 µM (inactive) | > 100 µM (inactive) | > 100 µM (inactive) | > 100 µM (inactive) | > 100 µM (inactive) | > 100 µM (inactive) | > 100 µM (inactive) | > 100 µM (inactive) | > 100 µM (inactive) | > 100 µM (inactive) | > 100 µM (inactive) | 65.5 µM (inactive) |
| Fc1ccc(C2(CCCN3CCc4[nH]c5cc(F)ccc5c4C3)OCCO2)cc1 | 4.18 µM (inactive) | 19 µM (inactive) | 16.7 µM (inactive) | 20.7 µM (inactive) | 20.1 µM (inactive) | 14.7 µM (inactive) | 6.67 µM (inactive) | 10.5 µM (inactive) | 13.3 µM (inactive) | 2.13 µM (inactive) | 10.9 µM (inactive) | 14.8 µM (inactive) | 10.7 µM (inactive) | 13.9 µM (inactive) | – | 14.7 µM (inactive) | 10.6 µM (inactive) | 16.2 µM (inactive) | 12.1 µM (inactive) | 3.33 µM (inactive) |
| C=C(C)C1CC2(C)C(C)CC(O)CC2C(OC(=O)C=C(C)C)C1O (stereo not given) | 32.8 µM (inactive) | 0.933 µM (active) | 30.9 µM (inactive) | 30.5 µM (inactive) | 40.5 µM (inactive) | 29.4 µM (inactive) | 18.1 µM (inactive) | 23 µM (inactive) | 33.7 µM (inactive) | 43.8 µM (inactive) | 19.2 µM (inactive) | 49.2 µM (inactive) | – | > 100 µM (inactive) | – | 60.5 µM (inactive) | 29.6 µM (inactive) | 30.3 µM (inactive) | 11.6 µM (inactive) | 24.4 µM (inactive) |
